The record followed here is US20240124439A1, “Pyrido[2,3-D]Imidazole Derivatives and Their Use As Inhibitors of ITK for the Treatment of Skin Disease” (Pfizer Inc., priority 2020, published 2024).

For orientation: IC50 means the point on the concentration scale where inhibition reaches its midpoint. A higher IC50 goes with lower potency.

In test [1] the target is IL-2-Inducible T-Cell Kinase (ITK) (Homo sapiens (Human), UniProt Q08881). Nature of the test: ITK enzyme assay (IL-2-inducible T-cell kinase activity). The test is classed as biochemical. As to conditions: geometric mean of count n. How it is done: ITK activity was determined by measuring the effect of a test compound in an ITK enzyme assay.
1.0 M HEPES Buffer pH 7.5 solution was prepared as follows: 238.3 g HEPES free acid (Sigma) and 800 mL of water were combined, and the mixture was stirred until complete dissolution. The pH was adjusted to 7.5 via titration with 5N NaOH and the volume adjusted to 1000 mL. The solution was filtered and sterilized.
ITK assay buffer was prepared as follows: 50 mL of HPLC-grade water was treated with 2 mL of 1.0 M HEPES Buffer, 500 μL of 2% Gelatin (Sigma), 1.0 mL of aqueous MgCl2 solution (1.0 M), and 1.0 mL of aqueous glutathione solution (0.5 M), and the solution was mixed. The solution was brought to 99 mL in a graduated cylinder by addition of water and sterilized through a 0.2 μm filter. 0.1 mL of Brij-35™ Surfact-Amps™ Detergent Solution (10% w/v aqueous solution, ThermoFisher) and 1.0 mL of ATP (Teknova,100 mM) were added and the solution was mixed.
Preparation of 1.33× ITK enzyme solution was as follows: 49.99 mL of ITK assay buffer was treated with 4.1 μL of ITK enzyme (ITK FL (N-Flag and C-His tagged, […]) Lake Pharma, 0.25 mg/ml in a buffer containing 25 mM Tris pH 7.8, 150 mM NaCl, 10% glycerol and 2 mM TCEP) and the mixture was gently agitated. The resulting solution was stored on ice. 30 Minutes prior to use, the enzyme solution was removed from ice and equilibrated to RT by incubation in a RT water bath.
Preparation of 4× ITK substrate solution was as follows: 50 mL of ITK assay buffer was treated with 100 μL of BTK peptide (China Peptide Company, 2 mM stock solution in DMSO). The tube was capped, mixed by gently inverting the tube, and then stored on ice. 30 Minutes prior to use, the substrate solution was removed from ice and equilibrated to RT by incubation in a RT water bath.
At the time of assay, 7.5 μL of the 1.33× ITK enzyme solution was added to plate wells containing 0.1 μL of varying concentrations of test compound in DMSO. The plate was incubated 30 min at RT. The plate wells were each treated with 2.5 uL of the 4× ITK substrate solution and the plate was sealed (TopSeal™, Perkin Elmer). The plate was spun at 1000 rpm for 30 sec and then incubated for 60 min at RT. The seal was removed, and each well was treated with 10 μL of Stop/Detect Buffer (20 mM HEPES pH 7.5, 0.01% gelatin, 1 nM LANCE PT66 (Perkin Elmer), 16.5 μg/ml Surelight APC (Perkin Elmer), 10 mM EDTA, 250 mM NaCl). The plate was again covered and was spun at 1000 rpm for […]. The plate was allowed to incubate overnight at RT and in a closed carrier to reduce dehydration. The seal was removed, and the fluorescence was read with a plate reader with an excitation wavelength of […]. The concentrations and resulting effect values for the tested compound were plotted and the concentration of compound required for 50% effect (IC50) was determined with the four-parameter logistic dose response equation.

Test [2] concerns activated CD4+ human T-cells (IL-2). Description: IL-2 inhibition in supernatants from activated CD4+ human T-cells (cisbio HTRF). The test is classed as cell-based. As to conditions: T-cell; CD3/CD28-activated CD4+ human T cells, ImmunoCult stimulation 20 to 24 hrs; geometric mean of count n. How it is done: IL-2 inhibition activity in supernatants from activated CD4+ human T-cells was determined by measuring the effect of a test compound on the activity using the cisbio HTRF™ technology.
Human CD4+ T cells were activated with CD3/CD28 for 3 days and expanded for an additional 4-6 days (7 to 9 days total). On day 0, frozen CD4+ T cells were thawed, treated with CD3/CD28 Dynabeads, and incubated at 37° C./5% CO2. On day 3, the beads were removed, and the cells were diluted to 5×10^5 cells/cm^2, placed in G-Rex10 flask, and incubated at 37° C./5% CO2. On day 7 to day 9 the cells were removed from the G-Rex flasks, counted and diluted back to 1×10^6 cells/ml in standard tissue culture flask.
The expanded CD4+ T-cells were centrifuged at 300×g for 10 minutes and resuspended to 0.5 million cells per ml (30,000 cells/well). 60 μl of CD4+ T cells were added per well to a 384 well plate containing 0.1 μL of varying concentrations of test compound in DMSO. The plates were incubated for 15 min at 37° C./5% CO2. 20 μl of diluted ImmunoCult™ (STEMCELL Technologies, 1:12.5 in T cell assay media) were added to all wells of the plate (1:50 final assay concentration). The plates were incubated for an additional 20 to 24 hrs at 37° C./5% CO2. The plates were centrifuged at 300×g for 10 minutes. 16 μL of supernatant was removed and combined with 4 μl of IL-2 HTRF Abs. (cisbio kit). Plates were incubated for 3 hours at RT and read with an EnVision plate reader at 665 nm and 615 nm wavelengths. The concentrations and resulting effect values for the tested compound were plotted and the concentration of compound required for 50% effect (IC50) was determined with the four-parameter logistic dose response equation.

Chain of IL-2-Inducible T-Cell Kinase (ITK) (Q08881 whole entry): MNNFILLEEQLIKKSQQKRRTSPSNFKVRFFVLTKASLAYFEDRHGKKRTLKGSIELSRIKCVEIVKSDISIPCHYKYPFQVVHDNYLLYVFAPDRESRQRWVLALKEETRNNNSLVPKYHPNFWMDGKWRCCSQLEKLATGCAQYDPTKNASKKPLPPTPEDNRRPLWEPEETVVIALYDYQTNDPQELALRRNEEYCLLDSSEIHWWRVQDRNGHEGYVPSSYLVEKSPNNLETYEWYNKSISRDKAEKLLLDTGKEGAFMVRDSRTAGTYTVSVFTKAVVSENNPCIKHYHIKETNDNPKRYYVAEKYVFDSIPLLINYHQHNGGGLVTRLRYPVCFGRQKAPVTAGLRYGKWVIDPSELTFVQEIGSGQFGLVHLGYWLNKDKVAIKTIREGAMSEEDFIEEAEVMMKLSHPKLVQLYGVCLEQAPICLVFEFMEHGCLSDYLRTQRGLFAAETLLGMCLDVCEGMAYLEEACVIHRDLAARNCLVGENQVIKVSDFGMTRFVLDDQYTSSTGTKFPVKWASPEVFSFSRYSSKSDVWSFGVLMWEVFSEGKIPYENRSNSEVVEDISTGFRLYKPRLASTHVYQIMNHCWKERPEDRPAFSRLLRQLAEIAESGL

For the compound `C[C@@H](C(=O)N(C)c1cnc2nc(-c3n[nH]c4c3C[C@@H]3C[C@]3(C)C4)[nH]c2c1)n1cccn1` [Example 7, (S)-N-Methyl-N-(2-((4aS,5aR)-5a-methyl-1,4,4a,5,5a,6-hexahydrocyclopropa[f]indazol-3-yl)-1H-imidazo[4,5-b]pyridin-6-yl)-2-(1H-pyrazol-1-yl)propenamide], the IC50 is 70 nM in test [1] and 398 nM in test [2].
In the case of `C[C@H](C(=O)N(C)c1cnc2nc(-c3n[nH]c4c3C[C@@H]3C[C@]3(C)C4)[nH]c2c1)n1cccn1` [Example 8, (R)-N-Methyl-N-(2-((4aS,5aR)-5a-methyl-1,4,4a,5,5a,6-hexahydrocyclopropa[f]indazol-3-yl)-1H-imidazo[4,5-b]pyridin-6-yl)-2-(1H-pyrazol-1-yl)propanamide], the IC50 in test [1] was determined as 117 nM; in test [2], 279 nM.
As to `CC(C(=O)N(C)c1cnc2[nH]c(-c3n[nH]c4c3C[C@@H]3C[C@]3(C)C4)nc2c1)C1CCOCC1` (stereo partly drawn) [Example 9, N-Methyl-N-(2-((4aS,5aR)-5a-methyl-1,4,4a,5,5a,6-hexahydrocyclopropa[f]indazol-3-yl)-3H-imidazo[4,5-b]pyridin-6-yl)-2-(tetrahydro-2H-pyran-4-yl)propanamide], the IC50 was 24 nM in test [1] and 147 nM in test [2].
As for `CN(C(=O)C(F)C1CCOCC1)c1cnc2nc(-c3n[nH]c4c3C[C@@H]3C[C@]3(C)C4)[nH]c2c1` (stereo partly drawn) [Example 11, 2-Fluoro-N-methyl-N-(2-((4aS,5aR)-5a-methyl-1,4,4a,5,5a,6-hexahydrocyclopropa[f]indazol-3-yl)-1H-imidazo[4,5-b]pyridin-6-yl)-2-(tetrahydro-2H-pyran-4-yl)acetamide], the IC50 in test [1] came to 72 nM; in test [2] it was 534 nM.
With `CN(C(=O)[C@H](F)C1CCOCC1)c1cnc2nc(-c3n[nH]c4c3C[C@@H]3C[C@]3(C)C4)[nH]c2c1` [Example 12, (R)-2-Fluoro-N-methyl-N-(2-((4aS,5aR)-5a-methyl-1,4,4a,5,5a,6-hexahydrocyclopropa[f]indazol-3-yl)-1H-imidazo[4,5-b]pyridin-6-yl)-2-(tetrahydro-2H-pyran-4-yl)acetamide], the results for the IC50 in test [1] and in test [2] were 76 nM and 447 nM, respectively.
On to `CN(C(=O)[C@@H](F)C1CCOCC1)c1cnc2nc(-c3n[nH]c4c3C[C@@H]3C[C@]3(C)C4)[nH]c2c1` [Example 13, (S)-2-Fluoro-N-methyl-N-(2-((4aS,5aR)-5a-methyl-1,4,4a,5,5a,6-hexahydrocyclopropa[f]indazol-3-yl)-1H-imidazo[4,5-b]pyridin-6-yl)-2-(tetrahydro-2H-pyran-4-yl)acetamide], for which the IC50 was found to be 102 nM in test [1] and 559 nM in test [2].
As to `C[C@@H](C(=O)N(CCO)c1cnc2[nH]c(-c3n[nH]c4c3C[C@@H]3C[C@]3(C)C4)nc2c1)N1CCOCC1` [Example 15, (S)-N-(2-Hydroxyethyl)-N-(2-((4aS,5aR)-5a-methyl-1,4,4a,5,5a,6-hexahydrocyclopropa[f]indazol-3-yl)-3H-imidazo[4,5-b]pyridin-6-yl)-2-morpholinopropanamide], the IC50 in test [1] turned out to be 83 nM; in test [2], 1230 nM.
On to `CC(=O)N(C)c1cnc2[nH]c(-c3n[nH]c4c3CCC(C)(C)C4)nc2c1` [Example 20, N-(2-(6,6-Dimethyl-4,5,6,7-tetrahydro-1H-indazol-3-yl)-3H-imidazo[4,5-b]pyridin-6-yl)-N-methylacetamide], for which the IC50 stood at 231 nM in test [1] and 1200 nM in test [2].
Consider `CCN(C(=O)[C@H](C)N1CCOCC1)c1cnc2nc(-c3n[nH]c4c3C[C@@H]3C[C@]3(C)C4)[nH]c2c1` [Example 21, (S)-N-Ethyl-N-(2-((4aS,5aR)-5a-methyl-1,4,4a,5,5a,6-hexahydrocyclopropa[f]indazol-3-yl)-1H-imidazo[4,5-b]pyridin-6-yl)-2-morpholinopropanamide], for which the figures for the IC50 in test [1] and in test [2] were 38 nM and 193 nM, respectively.
`CC(=O)N(C)c1cnc2[nH]c(-c3n[nH]c4c3C[C@@H]3C[C@]3(C)C4)nc2c1` [Example 25, N-methyl-N-(2-((4aS,5aR)-5a-Methyl-1,4,4a,5,5a,6-hexahydrocyclopropa[f]indazol-3-yl)-1H-imidazo[4,5-b]pyridin-6-yl)acetamide]: the values for the IC50 in test [1] and in test [2] were 130 nM and 709 nM, respectively.
As for `Cc1nc2[nH]c(-c3n[nH]c4c3C[C@@H]3C[C@]3(C)C4)nc2cc1N(C)C(=O)[C@H](C)N1CCOCC1` [Example 34, (S)-N-Methyl-N-(5-methyl-2-((4aS,5aR)-5a-methyl-1,4,4a,5,5a,6-hexahydrocyclopropa[f]indazol-3-yl)-3H-imidazo[4,5-b]pyridin-6-yl)-2-morpholinopropanamide], the IC50 in test [1] is 61 nM; in test [2], 481 nM.
In the case of `COc1nc2[nH]c(-c3n[nH]c4c3C[C@@H]3C[C@]3(C)C4)nc2cc1N(C)C(=O)CN1CCOCC1` [Example 35, N-(5-Methoxy-2-((4aS,5aR)-5a-methyl-1,4,4a,5,5a,6-hexahydrocyclopropa[f]indazol-3-yl)-3H-imidazo[4,5-b]pyridin-6-yl)-N-methyl-2-morpholinoacetamide], the IC50 in test [1] was 143 nM; in test [2] it was 462 nM.
As to `COCCOc1nc2[nH]c(-c3n[nH]c4c3C[C@@H]3C[C@]3(C)C4)nc2cc1N(C)C(=O)CN1CCOCC1` [Example 38, N-(5-(2-Methoxyethoxy)-2-((4aS,5aR)-5a-methyl-1,4,4a,5,5a,6-hexahydrocyclopropa[f]indazol-3-yl)-3H-imidazo[4,5-b]pyridin-6-yl)-N-methyl-2-morpholinoacetamide], the 50% inhibitory concentration (IC50) in test [1] amounted to 152 nM; in test [2], 464 nM.
Consider `COCCOc1nc2[nH]c(-c3n[nH]c4c3C[C@@H]3C[C@]3(C)C4)nc2cc1N(C)C(=O)[C@@H](C)N1CCOCC1` [Example 39, (R)-N-(5-(2-Methoxyethoxy)-2-((4aS,5aR)-5a-methyl-1,4,4a,5,5a,6-hexahydrocyclopropa[f]indazol-3-yl)-3H-imidazo[4,5-b]pyridin-6-yl)-N-methyl-2-morpholinopropanamide], for which the 50% inhibitory concentration (IC50) in test [1] was found to be 110 nM; in test [2] it was 461 nM.
For `C[C@@H](C(=O)N(C)c1cnc2[nH]c(-c3n[nH]c4c3C[C@@H]3C[C@]3(C)C4)nc2c1)N1CCCOCC1` [Example 43, (S)-N-Methyl-N-(2-((4aS,5aR)-5a-methyl-1,4,4a,5,5a,6-hexahydrocyclopropa[f]indazol-3-yl)-3H-imidazo[4,5-b]pyridin-6-yl)-2-(1,4-oxazepan-4-yl)propenamide] the same measures were 134 nM and 351 nM.
